Calls of active or inactive are those of the source. No cut-off for these calls is given here.
Key:
[1] = biological target: T1, Kinesin-like protein KIF15 (Homo sapiens) (UniProt Q9NS87); test: Inhibition of recombinant His6-tagged Kif15 (N700 residues) (unknown origin) expressed in HeLa cells assessed as reduction in Alexa-594 labelled microtubule gliding at 30 uM measured every 2 secs for 20 secs by epifluorescence microscopic analysis relative to control; format: cell-based
T1 sequence (whole entry): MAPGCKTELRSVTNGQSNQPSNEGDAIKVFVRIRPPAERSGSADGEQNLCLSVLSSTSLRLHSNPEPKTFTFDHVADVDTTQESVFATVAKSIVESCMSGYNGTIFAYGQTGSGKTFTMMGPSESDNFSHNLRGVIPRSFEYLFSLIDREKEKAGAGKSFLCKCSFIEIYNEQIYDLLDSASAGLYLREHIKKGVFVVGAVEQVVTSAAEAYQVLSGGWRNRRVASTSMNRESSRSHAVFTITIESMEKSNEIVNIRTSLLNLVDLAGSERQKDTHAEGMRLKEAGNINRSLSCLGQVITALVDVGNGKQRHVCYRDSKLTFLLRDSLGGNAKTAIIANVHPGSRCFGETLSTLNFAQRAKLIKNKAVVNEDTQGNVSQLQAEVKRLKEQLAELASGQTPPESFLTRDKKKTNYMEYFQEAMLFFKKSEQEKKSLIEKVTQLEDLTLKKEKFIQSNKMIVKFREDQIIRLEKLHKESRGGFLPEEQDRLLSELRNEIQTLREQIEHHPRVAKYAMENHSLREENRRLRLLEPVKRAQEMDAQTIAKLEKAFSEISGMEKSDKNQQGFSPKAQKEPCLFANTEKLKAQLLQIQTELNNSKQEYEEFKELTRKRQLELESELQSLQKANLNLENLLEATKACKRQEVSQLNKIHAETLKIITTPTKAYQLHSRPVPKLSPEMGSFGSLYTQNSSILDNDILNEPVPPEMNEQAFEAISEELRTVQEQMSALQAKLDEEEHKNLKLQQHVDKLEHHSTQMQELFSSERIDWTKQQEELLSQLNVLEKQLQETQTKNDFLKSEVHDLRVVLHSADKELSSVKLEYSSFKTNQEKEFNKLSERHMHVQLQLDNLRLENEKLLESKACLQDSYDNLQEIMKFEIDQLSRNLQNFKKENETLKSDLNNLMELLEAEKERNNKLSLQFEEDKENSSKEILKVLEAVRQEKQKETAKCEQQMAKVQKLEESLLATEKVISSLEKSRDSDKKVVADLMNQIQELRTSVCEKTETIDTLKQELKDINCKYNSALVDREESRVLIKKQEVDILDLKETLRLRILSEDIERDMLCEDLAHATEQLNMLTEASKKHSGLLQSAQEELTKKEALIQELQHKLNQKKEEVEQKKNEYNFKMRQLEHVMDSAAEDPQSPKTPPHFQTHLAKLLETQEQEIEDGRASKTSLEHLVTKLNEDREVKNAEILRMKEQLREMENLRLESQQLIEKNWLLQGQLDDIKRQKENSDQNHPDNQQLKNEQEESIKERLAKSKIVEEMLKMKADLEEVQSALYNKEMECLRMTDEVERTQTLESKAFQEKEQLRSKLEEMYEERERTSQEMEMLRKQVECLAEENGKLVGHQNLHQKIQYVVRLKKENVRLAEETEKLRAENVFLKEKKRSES

[2] = biological target: T2, Kinesin-like protein KIF15 (Homo sapiens, UniProt Q9NS87); test: Inhibition of recombinant His6-tagged Kif15 (N700 residues) (unknown origin) expressed in HeLa cells assessed as reduction in Alexa-594 labelled microtubule gliding measured every 2 secs for 20 secs by epifluorescence microscopic analysis; format: cell-based
T2 sequence (Q9NS87 whole entry): T1 sequence (whole entry)

[3] = biological target: T1, Kinesin-like protein KIF15 (Homo sapiens); test: Inhibition of Kif15 in TP53-deficient human RPE1 cells assessed as cells with bipolar pre-anaphase microtubule structure at 25 uM after 24 hrs by Hoechst 33342 staining based immunofluorescence microscopic analysis (reference value: 90 to 94%); set-up: scale not given: the % may be the effect or the level left
[4] = biological target: T1, Kinesin-like protein KIF15 (Homo sapiens); test: Inhibition of Kif15 in TP53-deficient human RPE1 cells assessed as effect on spindle length at 25 uM after 24 hrs by Hoechst 33342 staining based immunofluorescence microscopic analysis (reference value: 11.4 +/- 0.2 um)
[5] = biological target: T1, Kinesin-like protein KIF15 (Homo sapiens); test: Inhibition of recombinant His6-tagged Kif15 (N700 residues) (unknown origin) expressed in HeLa cells assessed as reduction in Alexa-594 labelled microtubule gliding at 750 nM measured every 2 secs for 20 secs by epifluorescence microscopic analysis (reference value: 1%); format: cell-based
[6] = biological target: T3, Kinesin-like protein KIF11 (Homo sapiens) (UniProt P52732); test: Inhibition of Eg5 (unknown origin) assessed as reduction in Alexa-594 labelled microtubule gliding at 30 uM measured every 2 secs for 20 secs by epifluorescence microscopic analysis relative to control
T3 sequence (whole entry): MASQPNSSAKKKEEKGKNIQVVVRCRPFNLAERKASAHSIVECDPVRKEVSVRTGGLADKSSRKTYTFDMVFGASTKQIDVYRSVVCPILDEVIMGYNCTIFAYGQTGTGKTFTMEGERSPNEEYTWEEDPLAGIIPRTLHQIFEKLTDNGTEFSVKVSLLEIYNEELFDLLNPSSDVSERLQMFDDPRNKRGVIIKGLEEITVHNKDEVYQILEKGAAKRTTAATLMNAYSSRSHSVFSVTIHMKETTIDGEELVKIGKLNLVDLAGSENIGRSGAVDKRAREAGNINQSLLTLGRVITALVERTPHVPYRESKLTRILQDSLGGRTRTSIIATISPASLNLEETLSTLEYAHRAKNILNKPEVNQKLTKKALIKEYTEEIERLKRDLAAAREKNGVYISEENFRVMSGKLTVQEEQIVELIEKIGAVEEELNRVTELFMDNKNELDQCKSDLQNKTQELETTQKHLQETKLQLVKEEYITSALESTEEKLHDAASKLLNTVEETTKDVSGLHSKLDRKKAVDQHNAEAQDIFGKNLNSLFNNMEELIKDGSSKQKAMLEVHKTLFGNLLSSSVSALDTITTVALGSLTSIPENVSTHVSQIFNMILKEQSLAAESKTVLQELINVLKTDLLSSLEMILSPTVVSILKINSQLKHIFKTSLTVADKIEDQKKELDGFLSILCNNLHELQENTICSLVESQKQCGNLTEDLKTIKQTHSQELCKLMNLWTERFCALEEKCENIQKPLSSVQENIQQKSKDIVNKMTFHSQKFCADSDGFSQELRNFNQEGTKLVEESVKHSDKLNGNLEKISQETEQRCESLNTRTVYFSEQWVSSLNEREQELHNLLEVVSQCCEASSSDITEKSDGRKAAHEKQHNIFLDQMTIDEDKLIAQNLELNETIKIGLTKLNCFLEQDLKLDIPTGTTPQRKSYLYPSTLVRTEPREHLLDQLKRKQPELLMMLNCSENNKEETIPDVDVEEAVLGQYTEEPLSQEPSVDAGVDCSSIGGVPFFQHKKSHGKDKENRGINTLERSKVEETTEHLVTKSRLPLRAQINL

[7] = biological target: T1, Kinesin-like protein KIF15 (Homo sapiens); test: Inhibition of Kif15 in K51-resistant human KIRC1 cells assessed as increase in cells with monopolar spindles after 24 hrs by Hoechst 33342 staining based immunofluorescence microscopic analysis

Question: With `O=C1Nc2ccc(C(=O)c3ccco3)cc2/C1=C/c1cc(Cl)c(O)c(Cl)c1` as the compound, how does the inhibition [1] read?
Answer: 98.9%

Question: What about the IC50 [2] of the same compound?
Answer: 750 nM

Question: And the Activity [3]?
Answer: 84%

Question: What about the inhibition [4] of the same compound?
Answer: inactive

Question: What about the inhibition [5] of the same compound?
Answer: 49%

Question: What about the inhibition [6] of the same compound?
Answer: 19.8%

Question: What about the inhibition [7] of the same compound?
Answer: Dose-dependent effect
